Data published in ChEMBL document CHEMBL1201862, “PubChem BioAssay data set” (2004).
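48-hour exposure; five concentrations; linearly interpolated endpoints. Abbreviation: GI50, concentration required for 50% inhibition of growth.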 Activity calls are given as the source filed them. No stated cut-off is given here; in the data, active = GI50 up to about 1.1 µM and inactive = higher.

How the values were obtained:
Test in all cases: NCI-60 cell line screen, 48 h
TK-10 = tested on: TK-10
SK-MEL-2 = tested on: SK-MEL-2
NCI-H460 = tested on: NCI-H460
UACC-62 = tested on: UACC-62
UACC-257 = tested on: UACC-257
HCT-116 = tested on: HCT-116
SW-620 = tested on: SW-620
SNB-78 = tested on: SNB-78
MOLT-4 = tested on: MOLT-4
A549 = tested on: A549
OVCAR-8 = tested on: OVCAR-8
HCT-15 = tested on: HCT-15
EKVX = tested on: EKVX
CCRF-CEM = tested on: CCRF-CEM
Hs-578T = tested on: Hs-578T
HCC 2998 = tested on: HCC 2998
PC-3 = tested on: PC-3
HOP-92 = tested on: HOP-92
OVCAR-3 = tested on: OVCAR-3
T47D = tested on: T47D

Cc1ccc(NC(=O)CSc2nnc(Cc3ccccc3)o2)c(C)c1
GI50 (TK-10): > 100 µM (inactive)
GI50 (SK-MEL-2): > 100 µM (inactive)
GI50 (NCI-H460): > 100 µM (inactive)
GI50 (UACC-62): > 100 µM (inactive)
GI50 (UACC-257): > 100 µM (inactive)
GI50 (HCT-116): > 100 µM (inactive)
GI50 (SW-620): > 100 µM (inactive)
GI50 (SNB-78): > 100 µM (inactive)
GI50 (MOLT-4): > 100 µM (inactive)
GI50 (A549): > 100 µM (inactive)
GI50 (OVCAR-8): > 100 µM (inactive)
GI50 (HCT-15): > 100 µM
GI50 (EKVX): > 100 µM (inactive)
GI50 (CCRF-CEM): > 100 µM (inactive)

CC(=O)OC1CCC2(C)C(=CCC3C4CCC5(OC6CC(C)CN(C(C)=O)C6C5C)C(C)=C4C(=O)C32)C1 (stereo not given)
GI50 (TK-10): 24.3 µM (inactive)
GI50 (SK-MEL-2): 17.8 µM (inactive)
GI50 (NCI-H460): 15.7 µM (inactive)
GI50 (UACC-62): 5.35 µM (inactive)
GI50 (Hs-578T): 16 µM (inactive)
GI50 (HCC 2998): 13.7 µM (inactive)
GI50 (UACC-257): 13.6 µM (inactive)
GI50 (HCT-116): 18.9 µM (inactive)
GI50 (PC-3): 14.3 µM (inactive)
GI50 (HOP-92): 15 µM (inactive)
GI50 (SW-620): 66.8 µM (inactive)
GI50 (MOLT-4): 5.53 µM (inactive)
GI50 (A549): 14.3 µM (inactive)
GI50 (OVCAR-8): 18.5 µM (inactive)
GI50 (HCT-15): 15.7 µM
GI50 (EKVX): 7.96 µM (inactive)
GI50 (OVCAR-3): 18.8 µM (inactive)
GI50 (T47D): 7.76 µM (inactive)
GI50 (CCRF-CEM): > 100 µM (inactive)

c1ccc(P(=Nc2ccccc2N=P(c2ccccc2)(c2ccccc2)c2ccccc2)(c2ccccc2)c2ccccc2)cc1
GI50 (TK-10): 0.54 µM (active)
GI50 (NCI-H460): 0.528 µM (active)
GI50 (UACC-62): 0.562 µM (active)
GI50 (HCC 2998): 0.942 µM (active)
GI50 (UACC-257): 0.386 µM (active)
GI50 (HCT-116): 0.593 µM (active)
GI50 (HOP-92): 0.178 µM (active)
GI50 (SW-620): 3.07 µM (inactive)
GI50 (SNB-78): 0.489 µM (active)
GI50 (A549): 0.305 µM (active)
GI50 (OVCAR-8): 0.364 µM (active)
GI50 (EKVX): 1.21 µM (inactive)
GI50 (OVCAR-3): 0.164 µM (active)
GI50 (CCRF-CEM): 1.3 µM (inactive)

O=C(/C=C/c1ccc(O)cc1)c1cc(Cl)ccc1O
GI50 (TK-10): > 100 µM (inactive)
GI50 (NCI-H460): 50.2 µM (inactive)
GI50 (UACC-62): 40.3 µM (inactive)
GI50 (HCC 2998): 62.8 µM (inactive)
GI50 (UACC-257): 71.8 µM (inactive)
GI50 (HCT-116): 22.6 µM (inactive)
GI50 (HOP-92): 85.3 µM (inactive)
GI50 (SW-620): 35.4 µM (inactive)
GI50 (SNB-78): 29.9 µM (inactive)
GI50 (MOLT-4): 16.6 µM (inactive)
GI50 (A549): 39.9 µM (inactive)
GI50 (OVCAR-8): 39.4 µM (inactive)
GI50 (EKVX): 86.3 µM (inactive)
GI50 (OVCAR-3): 28.2 µM (inactive)
GI50 (CCRF-CEM): 6.32 µM (inactive)

CC1Cc2c(cc(N)nc2Br)NC1=O (stereo not given)
GI50 (TK-10): > 100 µM (inactive)
GI50 (SK-MEL-2): > 100 µM (inactive)
GI50 (NCI-H460): > 100 µM (inactive)
GI50 (UACC-62): > 100 µM (inactive)
GI50 (Hs-578T): > 100 µM (inactive)
GI50 (HCC 2998): > 100 µM (inactive)
GI50 (UACC-257): > 100 µM (inactive)
GI50 (HCT-116): 64.6 µM (inactive)
GI50 (PC-3): > 100 µM (inactive)
GI50 (HOP-92): 45.9 µM (inactive)
GI50 (SW-620): > 100 µM (inactive)
GI50 (MOLT-4): 43.1 µM (inactive)
GI50 (A549): 63.7 µM (inactive)
GI50 (OVCAR-8): > 100 µM (inactive)
GI50 (HCT-15): > 100 µM
GI50 (EKVX): 11 µM (inactive)
GI50 (OVCAR-3): > 100 µM (inactive)
GI50 (T47D): 42.7 µM (inactive)
GI50 (CCRF-CEM): > 100 µM (inactive)

CSc1nsc(-c2ccccc2)[s+]1.[O-][Cl+3]([O-])([O-])[O-]
GI50 (TK-10): > 100 µM (inactive)
GI50 (SK-MEL-2): > 100 µM (inactive)
GI50 (NCI-H460): > 100 µM (inactive)
GI50 (UACC-62): > 100 µM (inactive)
GI50 (HCC 2998): > 100 µM (inactive)
GI50 (UACC-257): > 100 µM (inactive)
GI50 (HCT-116): > 100 µM (inactive)
GI50 (SW-620): > 100 µM (inactive)
GI50 (SNB-78): > 100 µM (inactive)
GI50 (MOLT-4): > 100 µM (inactive)
GI50 (A549): > 100 µM (inactive)
GI50 (OVCAR-8): > 100 µM (inactive)
GI50 (HCT-15): > 100 µM
GI50 (EKVX): > 100 µM (inactive)
GI50 (OVCAR-3): > 100 µM (inactive)
GI50 (CCRF-CEM): > 100 µM (inactive)

O=C1Nc2ccc(S(=O)(=O)O)cc2/C1=C1/Nc2ccc(Br)cc2C1=O
GI50 (TK-10): > 100 µM (inactive)
GI50 (SK-MEL-2): > 100 µM (inactive)
GI50 (NCI-H460): > 100 µM (inactive)
GI50 (UACC-62): > 100 µM (inactive)
GI50 (Hs-578T): > 100 µM (inactive)
GI50 (HCC 2998): > 100 µM (inactive)
GI50 (UACC-257): > 100 µM (inactive)
GI50 (HCT-116): > 100 µM (inactive)
GI50 (PC-3): > 100 µM (inactive)
GI50 (HOP-92): > 100 µM (inactive)
GI50 (SW-620): > 100 µM (inactive)
GI50 (MOLT-4): > 100 µM (inactive)
GI50 (A549): > 100 µM (inactive)
GI50 (OVCAR-8): > 100 µM (inactive)
GI50 (HCT-15): > 100 µM
GI50 (EKVX): > 100 µM (inactive)
GI50 (OVCAR-3): > 100 µM (inactive)
GI50 (T47D): > 100 µM (inactive)
GI50 (CCRF-CEM): > 100 µM (inactive)

COc1ccc(/C(C#N)=C2/O/C(=N/N)C(c3ccc(OC)c(OC)c3)C2=O)cc1OC (stereo not given)
GI50 (TK-10): > 100 µM (inactive)
GI50 (SK-MEL-2): > 100 µM (inactive)
GI50 (UACC-62): > 100 µM (inactive)
GI50 (UACC-257): > 100 µM (inactive)
GI50 (HCT-116): > 100 µM (inactive)
GI50 (HOP-92): > 100 µM (inactive)
GI50 (SW-620): > 100 µM (inactive)
GI50 (SNB-78): > 100 µM (inactive)
GI50 (MOLT-4): > 100 µM (inactive)
GI50 (A549): > 100 µM (inactive)
GI50 (HCT-15): > 100 µM
GI50 (EKVX): > 100 µM (inactive)
GI50 (OVCAR-3): > 100 µM (inactive)
GI50 (CCRF-CEM): > 100 µM (inactive)
